The text below walks through data of ChEMBL document CHEMBL1152560, “Substituted 2-arylbenzothiazoles as kinase inhibitors: hit-to-lead optimization” (Bioorg Med Chem, 2009).

Assay [1] concerns the target Fibroblast growth factor receptor 2 (Homo sapiens) (UniProt P21802). Description: Residual activity of FGFR2 at 0.1 uM by microplate scintillation counting.
In assay [2] the target is T1, Tyrosine-protein kinase JAK3 (Homo sapiens) (UniProt P52333).
T1 sequence (whole entry): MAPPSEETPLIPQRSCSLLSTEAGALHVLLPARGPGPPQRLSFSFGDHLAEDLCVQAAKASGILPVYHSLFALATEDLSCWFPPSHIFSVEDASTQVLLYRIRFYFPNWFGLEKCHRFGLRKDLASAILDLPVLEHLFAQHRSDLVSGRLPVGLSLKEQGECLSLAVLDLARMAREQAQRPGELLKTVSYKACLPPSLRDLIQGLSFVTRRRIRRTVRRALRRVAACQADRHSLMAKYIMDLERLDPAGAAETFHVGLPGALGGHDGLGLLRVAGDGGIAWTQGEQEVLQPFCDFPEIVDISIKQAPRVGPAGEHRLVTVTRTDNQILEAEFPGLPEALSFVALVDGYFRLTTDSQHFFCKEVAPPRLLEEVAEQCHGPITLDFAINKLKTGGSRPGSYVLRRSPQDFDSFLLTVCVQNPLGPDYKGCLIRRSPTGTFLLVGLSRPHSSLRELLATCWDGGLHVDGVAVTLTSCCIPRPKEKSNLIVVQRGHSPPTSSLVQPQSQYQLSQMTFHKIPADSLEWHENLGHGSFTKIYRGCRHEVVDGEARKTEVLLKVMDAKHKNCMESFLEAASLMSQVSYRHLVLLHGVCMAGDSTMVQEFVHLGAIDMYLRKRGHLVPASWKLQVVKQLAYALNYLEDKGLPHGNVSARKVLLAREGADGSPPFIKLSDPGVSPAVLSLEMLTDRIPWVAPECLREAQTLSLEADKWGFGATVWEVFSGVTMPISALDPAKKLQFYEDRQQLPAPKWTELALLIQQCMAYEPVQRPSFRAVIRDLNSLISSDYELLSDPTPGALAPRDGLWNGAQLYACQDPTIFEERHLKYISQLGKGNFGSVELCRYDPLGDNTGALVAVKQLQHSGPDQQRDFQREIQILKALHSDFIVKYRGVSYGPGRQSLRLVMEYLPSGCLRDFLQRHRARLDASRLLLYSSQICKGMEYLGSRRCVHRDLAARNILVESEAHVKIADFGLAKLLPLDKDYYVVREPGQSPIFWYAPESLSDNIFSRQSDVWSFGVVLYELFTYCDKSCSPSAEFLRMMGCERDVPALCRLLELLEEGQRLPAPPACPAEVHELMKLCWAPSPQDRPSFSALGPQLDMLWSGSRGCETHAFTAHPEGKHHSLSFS
In words: Residual activity of JAK3 at 0.1 uM by microplate scintillation counting.

In assay [3] the test system is T2, Dual specificity mitogen-activated protein kinase kinase 6 (Homo sapiens), P52564 [S207D,T211D].
T2 sequence (whole entry): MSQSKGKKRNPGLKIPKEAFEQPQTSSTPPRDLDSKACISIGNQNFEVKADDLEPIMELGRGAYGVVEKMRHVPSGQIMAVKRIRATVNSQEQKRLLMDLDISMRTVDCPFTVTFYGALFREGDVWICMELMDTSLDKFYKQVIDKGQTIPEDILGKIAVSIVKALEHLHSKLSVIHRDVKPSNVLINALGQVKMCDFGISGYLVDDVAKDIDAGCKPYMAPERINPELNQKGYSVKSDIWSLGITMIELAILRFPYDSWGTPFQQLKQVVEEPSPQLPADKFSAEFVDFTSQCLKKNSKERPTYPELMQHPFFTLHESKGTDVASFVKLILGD
Description: Residual activity of MKK6 S207D/T211D mutant at 0.1 uM by microplate scintillation counting.

Assay [4] concerns the target T3, Lymphokine-activated killer T-cell-originated protein kinase (Homo sapiens) (UniProt Q96KB5).
T3 sequence (whole entry): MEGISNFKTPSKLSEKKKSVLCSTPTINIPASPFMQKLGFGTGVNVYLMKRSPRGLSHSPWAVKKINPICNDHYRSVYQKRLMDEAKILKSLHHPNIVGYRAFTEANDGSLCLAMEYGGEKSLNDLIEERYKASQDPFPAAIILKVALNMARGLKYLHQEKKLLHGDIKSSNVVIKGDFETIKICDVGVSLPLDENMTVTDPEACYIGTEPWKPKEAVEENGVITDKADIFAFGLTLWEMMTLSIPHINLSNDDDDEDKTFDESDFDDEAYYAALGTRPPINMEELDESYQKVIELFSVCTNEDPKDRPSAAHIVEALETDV
Description: Residual activity of PBK at 1 uM by microplate scintillation counting.

Assay [5] deals with T4, Muscle, skeletal receptor tyrosine-protein kinase (Homo sapiens) (UniProt O15146).
T4 sequence (whole entry): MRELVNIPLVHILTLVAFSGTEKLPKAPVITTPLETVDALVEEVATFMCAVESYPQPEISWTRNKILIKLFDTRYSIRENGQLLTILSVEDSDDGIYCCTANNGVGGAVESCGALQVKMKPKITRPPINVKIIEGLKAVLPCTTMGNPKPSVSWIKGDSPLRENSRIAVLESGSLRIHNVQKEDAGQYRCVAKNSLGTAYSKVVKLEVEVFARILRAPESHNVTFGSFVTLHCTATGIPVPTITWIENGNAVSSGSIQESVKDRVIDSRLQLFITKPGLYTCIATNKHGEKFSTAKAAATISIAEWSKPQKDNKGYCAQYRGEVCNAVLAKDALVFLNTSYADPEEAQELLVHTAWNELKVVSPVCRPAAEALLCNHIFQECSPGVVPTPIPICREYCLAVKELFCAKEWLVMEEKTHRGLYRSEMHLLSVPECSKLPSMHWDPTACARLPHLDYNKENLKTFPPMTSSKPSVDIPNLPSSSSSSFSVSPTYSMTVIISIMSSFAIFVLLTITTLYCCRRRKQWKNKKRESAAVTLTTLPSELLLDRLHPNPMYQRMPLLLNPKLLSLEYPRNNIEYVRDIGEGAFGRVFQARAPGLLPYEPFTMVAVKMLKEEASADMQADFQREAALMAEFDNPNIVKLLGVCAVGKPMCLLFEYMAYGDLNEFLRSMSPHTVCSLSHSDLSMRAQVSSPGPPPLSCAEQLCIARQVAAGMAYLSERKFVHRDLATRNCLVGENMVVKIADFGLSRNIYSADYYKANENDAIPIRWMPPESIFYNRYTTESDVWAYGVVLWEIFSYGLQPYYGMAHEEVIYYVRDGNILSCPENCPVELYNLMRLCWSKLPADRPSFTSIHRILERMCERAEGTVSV
Description: Residual activity of MUSK at 0.1 uM by microplate scintillation counting.

In assay [6] the test system is Epidermal growth factor receptor (Homo sapiens), P00533 [L858R]. Description: Residual activity of EGFR L858R mutant at 0.1 uM by microplate scintillation counting.

Chain of Fibroblast growth factor receptor 2 (Homo sapiens) (P21802 22-821 limits assumed): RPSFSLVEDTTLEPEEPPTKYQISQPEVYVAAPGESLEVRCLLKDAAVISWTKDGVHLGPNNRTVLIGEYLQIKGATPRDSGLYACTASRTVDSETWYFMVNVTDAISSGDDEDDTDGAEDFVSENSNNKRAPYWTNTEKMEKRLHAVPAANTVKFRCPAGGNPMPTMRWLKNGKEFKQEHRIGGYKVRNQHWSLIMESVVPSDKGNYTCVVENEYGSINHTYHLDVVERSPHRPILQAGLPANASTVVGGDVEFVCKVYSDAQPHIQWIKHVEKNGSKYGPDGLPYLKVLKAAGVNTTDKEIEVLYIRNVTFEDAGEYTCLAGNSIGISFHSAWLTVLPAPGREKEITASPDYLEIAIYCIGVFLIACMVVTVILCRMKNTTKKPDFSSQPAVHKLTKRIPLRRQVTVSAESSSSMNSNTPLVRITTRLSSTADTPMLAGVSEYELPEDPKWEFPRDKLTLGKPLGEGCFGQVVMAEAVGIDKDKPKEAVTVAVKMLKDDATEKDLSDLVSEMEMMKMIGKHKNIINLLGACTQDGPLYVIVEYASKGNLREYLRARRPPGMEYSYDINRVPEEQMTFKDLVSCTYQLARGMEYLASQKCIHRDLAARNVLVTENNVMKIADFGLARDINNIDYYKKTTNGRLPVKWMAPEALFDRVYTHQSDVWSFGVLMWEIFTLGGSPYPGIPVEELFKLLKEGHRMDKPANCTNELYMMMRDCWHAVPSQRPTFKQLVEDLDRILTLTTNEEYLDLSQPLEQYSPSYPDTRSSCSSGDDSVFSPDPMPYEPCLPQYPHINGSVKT

For `COc1cc2c(Oc3ccc(-c4nc5ccccc5s4)cc3)ncnc2cc1OCCCN1CCCC1`, the residual activity in assay [1] came out at 103%; in assay [2] it was 98%; in assay [3], 72%; in assay [4], 103%; in assay [5], 97%; in assay [6], 92%.

For the compound `COc1cc2c(Oc3ccc(-c4nc5ccccc5s4)cc3F)ncnc2cc1OCCCN1CCN(C)CC1`, the residual activity in assay [1] amounted to 105%; in assay [2] it was 90%; in assay [3] it was 95%; in assay [4] it was 96%; in assay [5] it was 96%; in assay [6], 94%.

Turning to `COc1cc2c(Oc3ccc(-c4nc5ccccc5s4)cc3)ncnc2cc1OCCCN1CCN(C)CC1`, the residual activity was 101% in assay [1]; 95% in assay [2]; 80% in assay [3]; 100% in assay [4]; 95% in assay [5]; 93% in assay [6].
